# According to paper PMC12018770, “DEAD‐Box Helicase 6 Blockade in Brain‐Derived Aβ Oligomers From Alzheimer's Disease Patients Attenuates Neurotoxicity” (MedComm, 2025):
# “Also recorded” adds a separate entry of the source.
# B1: junction plakoglobin (protein)
# chain: MEVMNLMEQPIKVTEWQQTYTYDSGIHSGANTCVPSVSSKGIMEEDEACGRQYTLKKTTTYTQGVPPSQGDLEYQMSTTARAKRVREAMCPGVSGEDSSLLLATQVEGQATNLQRLAEPSQLLKSAIVHLINYQDDAELATRALPELTKLLNDEDPVVVTKAAMIVNQLSKKEASRRALMGSPQLVAAVVRTMQNTSDLDTARCTTSILHNLSHHREGLLAIFKSGGIPALVRMLSSPVESVLFYAITTLHNLLLYQEGAKMAVRLADGLQKMVPLLNKNNPKFLAITTDCLQLLAYGNQESKLIILANGGPQALVQIMRNYSYEKLLWTTSRVLKVLSVCPSNKPAIVEAGGMQALGKHLTSNSPRLVQNCLWTLRNLSDVATKQEGLESVLKILVNQLSVDDVNVLTCATGTLSNLTCNNSKNKTLVTQNSGVEALIHAILRAGDKDDITEPAVCALRHLTSRHPEAEMAQNSVRLNYGIPAIVKLLNQPNQWPLVKATIGLIRNLALCPANHAPLQEAAVIPRLVQLLVKAHQDAQRHVAAGTQQPYTDGVRMEEIVEGCTGALHILARDPMNRMEIFRLNTIPLFVQLLYSSVENIQRVAAGVLCELAQDKEAADAIDAEGASAPLMELLHSRNEGTATYAAAVLFRISEDKNPDYRKRVSVELTNSLFKHDPAAWEAAQSMIPINEPYGDDMDATYRPMYSSDVPLDPLEMHMDMDGDYPIDTYSDGLRPPYPTADHMLA
# B2: lecanemab (antibody, chains of the INN, looked up, V domains shown)
# VH: EVQLVESGGGLVQPGGSLRLSCSASGFTFSSFGMHWVRQAPGKGLEWVAYISSGSSTIYYGDTVKGRFTISRDNAKNSLFLQMSSLRAEDTAVYYCAREGGYYYGRSYYTMDYWGQGTTVTVSS
# VL: DVVMTQSPLSLPVTPGAPASISCRSSQSIVHSNGNTYLEWYLQKPGQSPKLLIYKVSNRFSGVPDRFSGSGSGTDFTLRISRVEAEDVGIYYCFQGSHVPPTFGPGTKLEIK
# Columns and labels:
# Aβ42 oligomers [1] = assay: Binding of biotin‐labeled short peptides to Aβ42 oligomers; conditions: biotin-labeled peptide probes; bands at 30 and 10 kDa for binders
# Description: We characterized the molecular mechanisms by which DDX6 influences Aβ oligomer neurotoxicity using real‐time quaking‐induced conversion (RT‐QuIC) to determine whether DDX6 promotes the formation of Aβ fibrillar plaques and oligomers. […] Next, we performed dot blotting assays (Figure 7D,E) on the four treatment groups using the A11 antibody. […] We also assessed the cytotoxic effects of the four treatment groups on HT‐22 cell cultures using CCK‐8 assays. […] Specific gray values were calculated using Total Lab 100 (Nonlinear Dynamics, Newcastle upon Tyne, UK).
# (A) Cell counting kit‐8 (CCK‐8) cytotoxicity assay (n = 3). […] Total Lab 100 analysis software was used to calculate the percentage of gray values for 157 polypeptide spots.
# The Aβ42 peptide was obtained from Abcam (#ab120301, USA). Aβ42 was solubilized using 1 mM hexafluoroisopropanol (#105228; Sigma‐Aldrich, Germany) and evaporated overnight in a desiccator to form a dry film. The film was then dissolved in dimethyl sulfoxide (#D8418; Sigma‐Aldrich) to a concentration of 5 mM, mixed with phosphate‐buffered saline, and incubated for 72 h at 4°C. The GST‐DDX6 protein was synthesized by KMD Bioscience Biotech Co., Ltd. (Tianjin, China). The biotin‐labeled short peptide was synthesized by Hubei Qiangyao Biotechnology Co., Ltd. (Hubei, China).
# Aβ42 oligomers [2] = assay: Peptide chip microarray of DDX6 peptides (1–157) with Aβ42 oligomers; conditions: Aβ oligomers 2.0 µg/mL, overnight 4°C; ECL; > 30% indicates effective binding site; Total Lab 100
# [3] = test system: human‐derived Aβ oligomers; assay: Co-immunoprecipitation / Western blotting of protein-Aβ oligomer interaction in AD brain extracts; assay type: binding; conditions: IgG isotype control
# Text: After rigorous data analysis with SAINTexpress, four proteins (DDX6, DSP, JUP, and HRNR) were identified as potential Aβ oligomer‐binding partners. To validate these findings, we selected DSP and DDX6 as positive controls for co‐IP analysis; tau proteins were used as negative controls. Input samples, IP, co‐IP extracts, and IgG controls were adjusted to ensure equal amounts of protein for comparison. […] The IP enrichment effect was substantial for Aβ oligomers, DDX6, DSP, and tau proteins. In the co‐IP extracts for DDX6 and DSP, Aβ oligomers were detected at approximately 55 and 30 kDa, respectively (indicated by “ [drawing 1] ”). […] Isotype control IgG was used to exclude nonspecific binding (Figure 2A).
# A Co‐IP kit (Thermo Fisher Scientific; #26149, USA) was used for the assay. Antibodies (2 µg) were crosslinked to a reinforced AminoLink coupling resin (20 µL of beads) and immobilized on a Pierce spin column at room temperature. Protein extracts (1 mg) were added to the spin column and incubated overnight at 4°C with rotation. The spin column was then transferred to a new collection tube, and 60 µL of elution buffer (pH 2.8, containing tertiary amine) was added. The column was centrifuged, and the eluate was analyzed to detect the presence of the target protein.
# Protein concentrations in the co‐IP extracts were measured using a bicinchoninic acid assay (#23225, Thermo Fisher Scientific, USA). For each sample, 20 µL of protein was loaded, with the following amounts of human‐derived Aβ oligomers (AD1–AD6) used: 1.8 µg, 2.0 µg, 1.9 µg, 1.6 µg, 2.0 µg, and 1.8 µg, respectively. Equivalent amounts of co‐IP extracts were loaded into the remaining lanes. A 5× loading buffer was added to the protein samples to achieve a final concentration of 1×, and the samples were incubated at 95°C for 5 min [44]. […]
# B. The PVDF membrane was probed with the Aβ oligomer antibody (A11), indicating enrichment of Aβ oligomers (post-IP) with bands observed at 55 kDa and 30 kDa. Aβ oligomers were detected in the co-IP products of DDX6 (indicated by “✸”). […]
# Aβ oligomers in AD brain = assay: IHC colocalization with Aβ oligomers in AD brain sections; design: species or system human; conditions: AD7–AD10, n = 4; fluorescence scan over 120 µm
# Text: To further validate the binding interactions between Aβ oligomers and the four proteins, we performed immunohistochemistry (IHC) on brain sections from four AD patients (AD7–AD10). We analyzed the colocalization of Aβ oligomers (red) with DDX6, JUP, HRNR, and DSP (all green), as well as 4',6‐diamidino‐2‐phenylindole (DAPI)‐stained nuclei (blue). […] We also performed fluorescence intensity scanning from left to right across stained brain tissue slices (120 µm). […] The combined results from co‐IP and IHC confirm that these four proteins can bind to Aβ oligomers.
# Sections were dewaxed, subjected to antigen retrieval, and blocked. They were then incubated with primary antibody (1:500) overnight at 4°C, followed by secondary antibody (1:200). Nuclei were stained with DAPI (Beyotime; C1002, Shanghai, China) for 10 min in the dark.
# [4] = test system: human‐derived Aβ oligomers; assay: AP-MS with SAINTexpress scoring of binding to human‐derived Aβ oligomers; conditions: score 0 to 1; criteria SAINT score > 0.5 and fold change ≥ 2; AD1–AD6, n = 6
# Text: Not all identified proteins bind to Aβ oligomers. Therefore, we used the SAINTexpress statistical method to screen for proteins most likely to interact with human‐derived Aβ oligomers. SAINTexpress assigns probability scores to factors interacting with target proteins, providing a value between 0 and 1, where higher scores indicate a greater likelihood of interaction with Aβ oligomers. Based on the analyzed results, we plotted the fold change on the x‐axis and SAINT scores on the y‐axis, with each point representing a protein. Proteins meeting the criteria of a SAINT score > 0.5 and fold change ≥ 2 were considered the most likely to bind Aβ oligomers (highlighted in red). Through rigorous analysis, we identified four proteins as binding partners (Figure 1C): DDX6 (SAINT score = 0.5783), DSP (SAINT score = 0.6608), JUP (SAINT score = 0.5846), and HRNR (SAINT score = 0.5246).
# An aliquot of each peptide mixture was loaded onto a trap column (in‐house‐fabricated column packed with a reversed‐phase ReproSil‐Pur C18‐AQ resin, 150 µm × 15 cm, C18, 3 µm, 100 Å, Dr. Maisch GmbH, Germany) connected to an analytical column (EASY‐Spray column, […] × 75 µm ID, PepMap RSLC C18, 2 µm, 100 Å, Thermo Scientific, USA) using the autosampler of an EASY‐nLC 1200 HPLC system (Thermo Fisher Scientific). The peptides were eluted using a gradient (solvent A: 0.1% formic acid in water; solvent B: 80% acetonitrile/0.1% formic acid in water; Sigma, Germany) directly into a Q Exactive Hybrid Quadrupole‐Orbitrap mass spectrometer (Thermo Fisher Scientific). The gradient program was as follows: 4%–8% solvent B over 2 min, 8%–28% solvent B over 43 min, 28%–40% solvent B over 10 min, 40%–95% solvent B over 1 min, and 95% solvent B for 10 min. The following mass spectrometry parameters were used: spray voltage, 2.2 kV; capillary temperature, 270°C; MS resolution, 70,000 at 400 m/z; MS precursor m/z range, 300.0–1800.0 m/z; activation type, high‐energy collision dissociation; normalized collision energy, 28.0; activation time, […]; and data‐dependent MS/MS, top 20 most intense peptide ions selected based on the preview scan in the Orbitrap.
# The raw MS files (Figure S5) were analyzed and searched against species‐specific protein databases using MaxQuant (v1.6.2.10). The following parameters were applied: maximum missed cleavages, 2; precursor ion mass tolerance, 20 ppm; and MS/MS tolerance, 20 ppm. Peptides and proteins were filtered to achieve a false discovery rate of < 1% using a target‐decoy database strategy, and only proteins with at least two unique peptides were reported. […] SAINT is a probabilistic method for scoring protein–protein interactions in AP‐MS experiments, enabling the identification of proteins most likely to interact with target proteins. […]
# AD patients = conditions: cited from earlier work
molecule,measurement,setting,value
GKSGAYLIPLLERLD [compound 49],interaction with Aβ42 oligomers,Aβ42 oligomers [1],all four binding peptides interacted with Aβ oligomers
same,gray value of spot on peptide array,Aβ42 oligomers [2],exceeding 30%
tau: tau proteins were used as negative controls [reference compound],binding to Aβ oligomers by co‐IP,[3],No apparent binding was observed; also recorded: tau was not detected in the co-IP products of Aβ oligomers
hornerin [HRNR],colocalization with Aβ oligomers,Aβ oligomers in AD brain,strong colocalization
same,SAINT score,[4],0.5246
DYCLKRELLMGIFEMGWE [34–45],interaction with Aβ42 oligomers,Aβ42 oligomers [1],all four binding peptides interacted with Aβ oligomers
desmoplakin [DSP],binding to Aβ oligomers by co‐IP,[3],DDX6 and DSP were also detected in Aβ oligomer co‐IP extracts; also recorded: DSP was detected in the co-IP products of Aβ oligomers
same,colocalization with Aβ oligomers,Aβ oligomers in AD brain,strong colocalization
same,SAINT score,[4],0.6608
solanezumab [reference compound],efficacy in clinical trials (in words),"AD patients; ref [11], [12], [13], [14]",failed to demonstrate efficacy in improving cognitive function during key clinical trials
"KPYEINLMEELTLKG [control peptide, reference compound]",interaction with Aβ42 oligomers,Aβ42 oligomers [1],did not interact with Aβ oligomers
IKPIPSNIDKSLYVAEYHSEPVED [153–156],interaction with Aβ42 oligomers,Aβ42 oligomers [1],all four binding peptides interacted with Aβ oligomers
same,gray value of spot on peptide array,Aβ42 oligomers [2],exceeding 30%
GIDIQAVNVVINFDF [compound 133],interaction with Aβ42 oligomers,Aβ42 oligomers [1],all four binding peptides interacted with Aβ oligomers
same,gray value of spot on peptide array,Aβ42 oligomers [2],exceeding 30%
B1,colocalization with Aβ oligomers,Aβ oligomers in AD brain,strong colocalization
same,SAINT score,[4],0.5846
B2,"brain shrinkage, share of AD patients","AD patients; after 18 months of treatment, ref [16]",approximately 28%
same,brain hemorrhage,"AD patients; early AD patients, ref [15]",17.3%
same,edema or effusion,"AD patients; early AD patients, ref [15]",12.6%
same,headaches,"AD patients; early AD patients, ref [15]",11.1%
same,delay of cognitive decline,"AD patients; early‐stage AD patients, ref [15]",27%
same,severe side effects (in words),"AD patients; some patients, ref [15], [16]","severe side effects, including brain hemorrhage, brain shrinkage, and even death"
